{
  "source": "patent US20240358692A1",
  "about": "“TREATMENT OF SCLERODERMA” (Aisa Pharma, Inc., priority 2023, published 2024)",
  "system": "participants with SSc-RP",
  "assay": "Frequency of weekly symptomatic RP attacks (patient diary), Phase 2a Part A",
  "type": "in vivo, human",
  "conditions": "ITT Part A",
  "source_text": "Percent change from baseline evaluation for frequency of weekly RP attacks were or will be used as the primary efficacy variable. The sponsor-developed participant-informed diary will be used to record data. Frequency of weekly RP attacks is defined as the total number of RP attacks divided by the number of days with available diary data within the last 7 days of each dosing period then multiplied by 7. Total number of RP attacks during the last 7 days of screening period divided by the number of days with available data then multiplied by 7 will be used as baseline for the analysis of all periods. The variable will be calculated as follows: […]\nPercent change from baseline evaluation for frequency of weekly RP attacks was and will be the primary efficacy endpoint. Frequency of weekly RP attacks is defined as the total number of RP attacks divided by the number of days with available diary data within the last 7 days of each dosing period then multiplied by 7. Total number of RP attacks during the last 7 days of screening period divided by the number of days with available data then multiplied by 7 will be used as baseline for the analysis of all periods.",
  "key": {"[1]": {"conditions": "Cilnidipine 10 mg, n=1, Excluding Outliers"}, "[2]": {"conditions": "Cilnidipine 10 mg, n=1, by Baseline RCS, first block (RCS <5.0)"}, "[3]": {"conditions": "Cilnidipine 20 mg, n=2, Excluding Outliers"}, "[4]": {"conditions": "Cilnidipine 20 mg, n=2, by Baseline RCS, first block (RCS <5.0)"}, "[5]": {"conditions": "Pooled Cilnidipine 10 mg and Cilnidipine 10 mg + Tadalafil 5 mg, n=1, by Baseline RCS, second block (RCS >5.0)"}, "[6]": {"conditions": "Pooled Cilnidipine 10 mg and Cilnidipine 10 mg + Tadalafil 5 mg, n=2, by Baseline RCS, first block (RCS <5.0)"}, "[7]": {"conditions": "Pooled Cilnidipine 10 mg and Cilnidipine 10 mg + Tadalafil 5 mg, n=3"}, "[8]": {"conditions": "Pooled Cilnidipine 10 mg and Cilnidipine 10 mg + Tadalafil 5 mg, n=3, Excluding Outliers"}, "[9]": {"conditions": "Pooled Cilnidipine 10 mg and Cilnidipine 10 mg + Tadalafil 5 mg, n=1, excluding outliers, second Baseline RCS subgroup, last 7 days of dosing"}, "[10]": {"conditions": "Pooled Cilnidipine 10 mg and Cilnidipine 10 mg + Tadalafil 5 mg, n=2, excluding outliers, first Baseline RCS subgroup, last 7 days of dosing"}},
  "data": [
    {"smiles": "COCCOC(=O)C1=C(C)NC(C)=C(C(=O)OC/C=C/c2ccccc2)C1c1cccc([N+](=O)[O-])c1", "note": "(centres unmarked) [Cilnidipine]", "values": [
      {"measurement": "Weekly Symptomatic RP Attacks Change from Baseline, Mean", "setting": "Cilnidipine 10 mg, n=1", "result": "−7.00"},
      {"measurement": "Weekly Symptomatic RP Attacks Change from Baseline, Median", "setting": "Cilnidipine 10 mg, n=1", "result": "−7.00"},
      {"measurement": "Weekly Symptomatic RP Attacks Percent Change from Baseline, Mean", "setting": "Cilnidipine 10 mg, n=1", "result": "−33.33", "unit": "%"},
      {"measurement": "Weekly Symptomatic RP Attacks Percent Change from Baseline, Median", "setting": "Cilnidipine 10 mg, n=1", "result": "−33.33", "unit": "%"},
      {"measurement": "Weekly Symptomatic RP Attacks, Mean", "setting": "Cilnidipine 10 mg, n=1", "result": 14.00},
      {"measurement": "Weekly Symptomatic RP Attacks, Median", "setting": "Cilnidipine 10 mg, n=1", "result": 14.00},
      {"measurement": "Weekly Symptomatic RP Attacks Change from Baseline, Mean", "setting": "[1]", "result": "−7.00"},
      {"measurement": "Weekly Symptomatic RP Attacks Change from Baseline, Median", "setting": "[1]", "result": "−7.00"},
      {"measurement": "Weekly Symptomatic RP Attacks Percent Change from Baseline, Mean", "setting": "[1]", "result": "−33.33", "unit": "%"},
      {"measurement": "Weekly Symptomatic RP Attacks Percent Change from Baseline, Median", "setting": "[1]", "result": "−33.33", "unit": "%"},
      {"measurement": "Weekly Symptomatic RP Attacks, Mean", "setting": "[1]", "result": 14.00},
      {"measurement": "Weekly Symptomatic RP Attacks, Median", "setting": "[1]", "result": 14.00},
      {"measurement": "Weekly Symptomatic RP Attacks Change from Baseline, Mean", "setting": "[2]", "result": "−7.00"},
      {"measurement": "Weekly Symptomatic RP Attacks Change from Baseline, Median", "setting": "[2]", "result": "−7.00"},
      {"measurement": "Weekly Symptomatic RP Attacks Percent Change from Baseline, Mean", "setting": "[2]", "result": "−33.33", "unit": "%"},
      {"measurement": "Weekly Symptomatic RP Attacks Percent Change from Baseline, Median", "setting": "[2]", "result": "−33.33", "unit": "%"},
      {"measurement": "Weekly Symptomatic RP Attacks, Mean", "setting": "[2]", "result": 14.00},
      {"measurement": "Weekly Symptomatic RP Attacks, Median", "setting": "[2]", "result": 14.00},
      {"measurement": "Weekly Symptomatic RP Attacks Change from Baseline, Mean", "setting": "Cilnidipine 20 mg, n=2", "result": "−4.50"},
      {"measurement": "Weekly Symptomatic RP Attacks Change from Baseline, Median", "setting": "Cilnidipine 20 mg, n=2", "result": "−4.50"},
      {"measurement": "Weekly Symptomatic RP Attacks Percent Change from Baseline, Mean", "setting": "Cilnidipine 20 mg, n=2", "result": "−33.73", "unit": "%"},
      {"measurement": "Weekly Symptomatic RP Attacks Percent Change from Baseline, Median", "setting": "Cilnidipine 20 mg, n=2", "result": "−33.73", "unit": "%"},
      {"measurement": "Weekly Symptomatic RP Attacks, Mean", "setting": "Cilnidipine 20 mg, n=2", "result": 8.00},
      {"measurement": "Weekly Symptomatic RP Attacks, Median", "setting": "Cilnidipine 20 mg, n=2", "result": 8.00},
      {"measurement": "Weekly Symptomatic RP Attacks Change from Baseline, Mean", "setting": "[3]", "result": "−4.50"},
      {"measurement": "Weekly Symptomatic RP Attacks Change from Baseline, Median", "setting": "[3]", "result": "−4.50"},
      {"measurement": "Weekly Symptomatic RP Attacks Percent Change from Baseline, Median", "setting": "[3]", "result": "−33.73", "unit": "%"},
      {"measurement": "Weekly Symptomatic RP Attacks, Mean", "setting": "[3]", "result": 8.00},
      {"measurement": "Weekly Symptomatic RP Attacks, Median", "setting": "[3]", "result": 8.00},
      {"measurement": "Weekly Symptomatic RP Attacks Change from Baseline, Mean", "setting": "[4]", "result": "−4.50"},
      {"measurement": "Weekly Symptomatic RP Attacks Change from Baseline, Median", "setting": "[4]", "result": "−4.50"},
      {"measurement": "Weekly Symptomatic RP Attacks Percent Change from Baseline, Mean", "setting": "[4]", "result": "−33.73", "unit": "%"},
      {"measurement": "Weekly Symptomatic RP Attacks Percent Change from Baseline, Median", "setting": "[4]", "result": "−33.73", "unit": "%"},
      {"measurement": "Weekly Symptomatic RP Attacks, Mean", "setting": "[4]", "result": 8.00},
      {"measurement": "Weekly Symptomatic RP Attacks, Median", "setting": "[4]", "result": 8.00},
      {"measurement": "Weekly Symptomatic RP Attacks Change from Baseline, Mean", "setting": "[5]", "result": "−3.00"},
      {"measurement": "Weekly Symptomatic RP Attacks Change from Baseline, Median", "setting": "[5]", "result": "−3.00"},
      {"measurement": "Weekly Symptomatic RP Attacks Percent Change from Baseline, Mean", "setting": "[5]", "result": "−42.86", "unit": "%"},
      {"measurement": "Weekly Symptomatic RP Attacks Percent Change from Baseline, Median", "setting": "[5]", "result": "−42.86", "unit": "%"},
      {"measurement": "Weekly Symptomatic RP Attacks, Mean", "setting": "[5]", "result": 4.00},
      {"measurement": "Weekly Symptomatic RP Attacks, Median", "setting": "[5]", "result": 4.00},
      {"measurement": "Weekly Symptomatic RP Attacks Change from Baseline, Mean", "setting": "[6]", "result": "−5.50"},
      {"measurement": "Weekly Symptomatic RP Attacks Change from Baseline, Median", "setting": "[6]", "result": "−5.50"},
      {"measurement": "Weekly Symptomatic RP Attacks Percent Change from Baseline, Mean", "setting": "[6]", "result": "−38.89", "unit": "%"},
      {"measurement": "Weekly Symptomatic RP Attacks Percent Change from Baseline, Median", "setting": "[6]", "result": "−38.89", "unit": "%"},
      {"measurement": "Weekly Symptomatic RP Attacks, Mean", "setting": "[6]", "result": 9.50},
      {"measurement": "Weekly Symptomatic RP Attacks, Median", "setting": "[6]", "result": 9.50},
      {"measurement": "Weekly Symptomatic RP Attacks Change from Baseline, Mean", "setting": "[7]", "result": "−4.67"},
      {"measurement": "Weekly Symptomatic RP Attacks Change from Baseline, Median", "setting": "[7]", "result": "−4.00"},
      {"measurement": "Weekly Symptomatic RP Attacks Percent Change from Baseline, Mean", "setting": "[7]", "result": "−40.21", "unit": "%"},
      {"measurement": "Weekly Symptomatic RP Attacks Percent Change from Baseline, Median", "setting": "[7]", "result": "−42.86", "unit": "%"},
      {"measurement": "Weekly Symptomatic RP Attacks, Mean", "setting": "[7]", "result": 7.67},
      {"measurement": "Weekly Symptomatic RP Attacks, Median", "setting": "[7]", "result": 5.00},
      {"measurement": "Weekly Symptomatic RP Attacks Change from Baseline, Mean", "setting": "[8]", "result": "−4.67"},
      {"measurement": "Weekly Symptomatic RP Attacks Change from Baseline, Median", "setting": "[8]", "result": "−4.00"},
      {"measurement": "Weekly Symptomatic RP Attacks Percent Change from Baseline, Mean", "setting": "[8]", "result": "−40.21", "unit": "%"},
      {"measurement": "Weekly Symptomatic RP Attacks Percent Change from Baseline, Median", "setting": "[8]", "result": "−42.86", "unit": "%"},
      {"measurement": "Weekly Symptomatic RP Attacks, Mean", "setting": "[8]", "result": 7.67},
      {"measurement": "Weekly Symptomatic RP Attacks, Median", "setting": "[8]", "result": 5.00},
      {"measurement": "Weekly Symptomatic RP Attacks Change from Baseline, Mean", "setting": "[9]", "result": "−3.00"},
      {"measurement": "Weekly Symptomatic RP Attacks Change from Baseline, Median", "setting": "[9]", "result": "−3.00"},
      {"measurement": "Weekly Symptomatic RP Attacks Percent Change from Baseline, Mean", "setting": "[9]", "result": "−42.86", "unit": "%"},
      {"measurement": "Weekly Symptomatic RP Attacks Percent Change from Baseline, Median", "setting": "[9]", "result": "−42.86", "unit": "%"},
      {"measurement": "Weekly Symptomatic RP Attacks, Mean", "setting": "[9]", "result": 4.00},
      {"measurement": "Weekly Symptomatic RP Attacks, Median", "setting": "[9]", "result": 4.00},
      {"measurement": "Weekly Symptomatic RP Attacks Change from Baseline, Mean", "setting": "[10]", "result": "−5.50"},
      {"measurement": "Weekly Symptomatic RP Attacks Change from Baseline, Median", "setting": "[10]", "result": "−5.50"},
      {"measurement": "Weekly Symptomatic RP Attacks Percent Change from Baseline, Mean", "setting": "[10]", "result": "−38.89", "unit": "%"},
      {"measurement": "Weekly Symptomatic RP Attacks Percent Change from Baseline, Median", "setting": "[10]", "result": "−38.89", "unit": "%"},
      {"measurement": "Weekly Symptomatic RP Attacks, Mean", "setting": "[10]", "result": 9.50},
      {"measurement": "Weekly Symptomatic RP Attacks, Median", "setting": "[10]", "result": 9.50}
    ]}
  ]
}
